From ChEMBL document CHEMBL1121874, “Importance of the aromatic ring in adrenergic amines. 5. Nonaromatic analogues of phenylethanolamine as inhibitors of phenylethanolamine N-methyltransferase: role of hydrophobic and steric interactions” (J Med Chem, 1981)

Assays:
[1] = molecular target: T1, Phenylethanolamine N-methyltransferase (Bos taurus, UniProt P10938); assay: (§1) Inhibitory activity against phenylethanolamine N-methyl-transferase
T1 sequence (P10938 whole entry): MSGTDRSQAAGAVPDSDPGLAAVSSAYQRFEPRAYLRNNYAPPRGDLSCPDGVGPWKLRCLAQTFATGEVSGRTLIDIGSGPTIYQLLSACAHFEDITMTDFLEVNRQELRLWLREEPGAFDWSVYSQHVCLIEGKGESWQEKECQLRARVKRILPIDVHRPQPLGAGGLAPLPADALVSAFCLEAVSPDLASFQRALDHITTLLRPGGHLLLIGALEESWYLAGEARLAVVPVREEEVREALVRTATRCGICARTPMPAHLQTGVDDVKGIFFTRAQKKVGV

[2] = substrate: NCC(O)/C1=C/CC/C=C\CC1; assay: (§2) Substrate activity against phenylethanolamine N-methyl-transferase was tested
[3] = substrate: NCC(O)/C1=C/CCCCCC1; assay: as §2
[4] = substrate: NCC(O)C1=C/C=C\C=C/C=C\1; assay: as §2
[5] = substrate: NCC(O)C1=C/CCCC/C=C\1; assay: as §2
[6] = substrate: NCC(O)C1CC=CCC1; assay: as §2
[7] = substrate: NCC(O)C1CCCCC1; assay: as §2
[8] = substrate: NCC(O)C1CCCCCCC1; assay: as §2
[9] = compound: NC[C@@H](O)c1ccccc1; assay: as §1

Row | Molecule | IC50 [1] | further results
1 | C[Si](C)(C)OC(C#N)C1CCCCCCCCCC1 (stereo unspecified) | 9 µM | –
2 | CCCCCCCC(O)CN (stereo unspecified) | 216 µM | –
3 | C[Si](C)(C)OC1(C#N)CCCCCCCC1 | 17 µM | –
4 | C[Si](C)(C)OC(C#N)C1CCCC1 (stereo unspecified) | 446 µM | –
5 | C[Si](C)(C)OC1(C#N)CCCCCC1 | 510 µM | –
6 | NCC1(O)CCCCC1 | > 1000 µM | –
7 | NCC(O)C1CCCCCCCCCC1 (stereo unspecified) | 9 µM | –
8 | CCCCCCC(C)(C#N)O[Si](C)(C)C (stereo unspecified) | 664 µM | –
9 | NCC(O)C1CCCC1 (stereo unspecified) | 446 µM | –
10 | CCCCC(O)CN (stereo unspecified) | 345 µM | –
11 | O=CC12CC3CC(CC(C3)C1)C2 | 195 µM | –
12 | CCC(C)C(C)C=O (stereo unspecified) | 403 µM | –
13 | CC(C)CC(C#N)O[Si](C)(C)C (stereo unspecified) | 1000 µM | –
14 | CCCCCCCC=O [OCTANAL] | 216 µM | –
15 | CCCCCC(C)(O)CN (stereo unspecified) | 669 µM | –
16 | NCC1(O)CCCC1 | > 1000 µM | –
17 | NCC(O)C1CCCCCCCC1 (stereo unspecified) | 6 µM | –
18 | CCC(C=O)CC | 545 µM | –
19 | CCCCCC(C#N)O[Si](C)(C)C (stereo unspecified) | 314 µM | –
20 | NCC1(O)CCCCCCCC1 | 17 µM | –
21 | CCCCCC(C)=O | 669 µM | –
22 | O=C1CCCCC1 [CYCLOHEXANONE] | > 1000 µM | –
23 | CCCCCCCC(C#N)O[Si](C)(C)C (stereo unspecified) | 216 µM | –

Row | Molecule | IC50 [1] | further results
24 | C[Si](C)(C)OC1(C#N)CCCCC1 | > 1000 µM | –
25 | NCC(O)C1CCCCC1 (stereo unspecified) | 14 µM | –
26 | NCC(O)C1=C/CCCC/C=C\1 (stereo unspecified) | 57 µM | –
27 | C[Si](C)(C)OC(C#N)C1CCC1 (stereo unspecified) | > 1000 µM | –
28 | C[Si](C)(C)OC(C#N)C1CCCCCCCC1 (stereo unspecified) | 6 µM | –
29 | CCC(CC)C(C#N)O[Si](C)(C)C (stereo unspecified) | 545 µM | –
30 | CCCCCCC=O [HEPTANAL] | 109 µM | –
31 | NCC(O)C1CCCCCCC1 (stereo unspecified) | 7 µM | –
32 | CCC(CC)C(O)CN (stereo unspecified) | 545 µM | –
33 | O=CC1CCCCCCCCCC1 [CYCLOUNDECANE CARBALDEHYDE] | 9 µM | –
34 | C[Si](C)(C)OC(C#N)C1CCCCCC1 (stereo unspecified) | 8 µM | –
35 | CCCCCCC(C)(O)CN (stereo unspecified) | 664 µM | –
36 | O=CC1CCCCCC1 [CYCLOHEPTANE CARBALDEHYDE] | 8 µM | –
37 | CC(C)CC(O)CN (stereo unspecified) | 1000 µM | –
38 | O=CC1CCCCCCCC1 [CYCLONONANECARBALDEHYDE] | 6 µM | –
39 | CCCCCCC(C)=O | 664 µM | –
40 | NCC(O)C1CC=CCC1 (stereo unspecified) | 52 µM | –
41 | NCC(O)/C1=C/CCCCCC1 (stereo unspecified) | 38 µM | –
42 | NCC1(O)CCCCCCC1 | 72 µM | –
43 | CCCCCCC(C#N)O[Si](C)(C)C (stereo unspecified) | 109 µM | –
44 | CCCCCC=O [HEXANAL] | 314 µM | –
45 | CCC(C)C(C)C(C#N)O[Si](C)(C)C (stereo unspecified) | 403 µM | –
46 | NCC(O)C1CCC1 (stereo unspecified) | > 1000 µM | –

Row | Molecule | IC50 [1] | further results
47 | O=CC1CCC1 [CYCLOBUTANE CARBALDEHYDE] | > 1000 µM | –
48 | O=C1CCCCCC1 [CYCLOHEPTANONE] | 510 µM | –
49 | NCC(O)C1CCCCCC1 (stereo unspecified) | 8 µM | –
50 | CCC(C)C(C)C(O)CN (stereo unspecified) | 403 µM | –
51 | O=C1CCCC1 [CYCLOPENTANONE] | > 1000 µM | –
52 | CCCCCCC(O)CN (stereo unspecified) | 109 µM | –
53 | NCC1(O)CCCCCCCCCC1 | 8 µM | –
54 | CCCCC=O [PENTANAL] | 345 µM | –
55 | C[Si](C)(C)OC1(C#N)CCCC1 | > 1000 µM | –
56 | CC(C)CC=O | 1000 µM | –
57 | O=C1CCCCCCC1 [CYCLOOCTANONE] | 72 µM | –
58 | NCC(O)/C1=C/CC/C=C\CC1 (stereo unspecified) | 89 µM | –
59 | CCCCC(C#N)O[Si](C)(C)C (stereo unspecified) | 345 µM | –
60 | NCC(O)C1=C/C=C\C=C/C=C\1 (stereo unspecified) | 760 µM | –
61 | CCCCCC(C)(C#N)O[Si](C)(C)C (stereo unspecified) | 669 µM | –
62 | NCC1(O)CCCCCC1 | 510 µM | –
63 | NCC(O)C12CC3CC(CC(C3)C1)C2 (stereo unspecified) | 195 µM | –
64 | O=CC1CCCC1 [CYCLOPENTANECARBALDEHYDE] | 446 µM | –
65 | C[Si](C)(C)OC(C#N)C12CC3CC(CC(C3)C1)C2 (stereo unspecified) | 195 µM | –
66 | O=C1CCCCCCCC1 [CYCLONONANONE] | 17 µM | –
67 | CCCCCC(O)CN (stereo unspecified) | 314 µM | –
68 | C[Si](C)(C)OC1(C#N)CCCCCCC1 | 72 µM | –
69 | Phenylethanolamine N-methyltransferase (Bos taurus), P10938 (protein) MSGTDRSQAAGAVPDSDPGLAAVSSAYQRFEPRAYLRNNYAPPRGDLSCPDGVGPWKLRCLAQTFATGEVSGRTLIDIGSGPTIYQLLSACAHFEDITMTDFLEVNRQELRLWLREEPGAFDWSVYSQHVCLIEGKGESWQEKECQLRARVKRILPIDVHRPQPLGAGGLAPLPADALVSAFCLEAVSPDLASFQRALDHITTLLRPGGHLLLIGALEESWYLAGEARLAVVPVREEEVREALVRTATRCGICARTPMPAHLQTGVDDVKGIFFTRAQKKVGV | – | Km [2]: 155 µM; Km [3]: 110 µM; Km [4]: 430 µM; Km [5]: 128 µM; Km [6]: 57 µM; Km [7]: 40 µM; Km [8]: 26 µM; Km [9]: 136 µM
